PubChem BioAssay AID179 (DTP/NCI, 2004)
Where “and” joins values, the source holds several entries; their conditions need not be identical. Equal entries are not always repeated. Calls of active or inactive are those of the source.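 How the source made its calls: active means compounds giving half or more protection of infected cells from virus-caused growth loss, again on retest; inactive means the rest.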

Tested on: CEM cells HIV-1 protection, formazan growth assay
Test: NCI AIDS Antiviral Assay
Conditions: for IC50: measured here: growth of uninfected CEM cells
Method in brief: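 Human CEM cells, uninfected and HIV-1-infected, exposed to five drug concentrations; growth measured by soluble formazan assay and scored as percent protection from infection, with protecting compounds retested.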

Row | Structure (SMILES) | EC50 | IC50 | outcome
1 | Cc1ccc(S(=O)(=O)N2c3ccccc3[C@H]3CCC=C[C@H]32)cc1 | > 100 µM | 6.92 µM | 
2 | CC(O)C(NC(=O)C1CSSCC(NC(=O)C(Cc2ccccc2)NC(=O)OCC2c3ccccc3-c3ccccc32)C(=O)NC(Cc2ccccc2)C(=O)NC(Cc2cn(C=O)c3ccccc23)C(=O)NC(CCCCNC(=O)OCC2c3ccccc3-c3ccccc32)C(=O)NC(C(C)O)C(=O)N1)C(N)=O (configuration not stated) | > 50.1 µM | 6.46 µM | 
3 | O=C(N=C1C(=O)C2(CCCCC2)C2(N=C(c3ccccc3)OC2=O)C12CCCCC2)c1ccccc1 (configuration not stated) | > 27.5 µM | 10 µM | 
4 | [N-]=[N+]=NC12CC3CC(CC(C3)C1)C2 | > 380 µM | > 380 µM | 
5 | CN(C)c1c(C2OC(CO)C(O)C2O)c(=O)c1=O (configuration not stated) | > 200 µM | > 200 µM | 
6 | CCOC(=O)NN(C(=O)OCC)C(=C(C1CCCCC1)N1CCOCC1)N(NC(=O)OCC)C(=O)OCC | 126 µM | 170 µM | 
7 | COC(=O)[C@H]1C[C@H]1NC(=O)C(CC(=O)OCc1ccccc1)NC(=O)OCc1ccccc1 (some centres not stated) | > 200 µM | 79.4 µM | 
8 | COc1ccccc1NC(=S)NN=C(C)c1cccc(C(C)=NNC(=S)Nc2ccccc2OC)n1 | > 200 µM | 34.7 µM | 
9 | CN(C)C12C=CC=CC3=C(c4ccccc4)C(c4ccccc4)=C(c4ccccc4)C31c1ccccc1C2 (configuration not stated) | > 200 µM | > 200 µM | 
10 | CCOC(=O)c1nc2ccc(C(F)(F)F)cc2nc1Oc1ccc(C#N)cc1 | > 200 µM | > 200 µM | 
11 | CN(C)c1ccc(C2CC(=O)CC(c3ccc(N(C)C)cc3)C23C(=O)NC(=O)NC3=O)cc1 (configuration not stated) | > 25.1 µM | > 25.1 µM | 
12 | O=C1C2C(C(=O)N1c1ccccc1)C1(c3ccccc3)OC2(c2ccccc2)c2ccccc21 (configuration not stated) |  |  | inactive
13 | CCCC(O)C(=O)C(CCC)N(CC)CC (configuration not stated) | > 1100 µM | > 1100 µM | 
14 | CCOP(=O)(OCC)/C(C#N)=C/c1cccc(C#N)c1 | > 617 µM | 102 µM | 
15 | CCOC(=O)C1C(c2ccc(Br)cc2)N(Cc2ccccc2)C(c2ccc(Br)cc2)C(C(=O)OC)S1(=O)=O (configuration not stated) | > 2.19 µM | > 2.19 µM | 
16 | Cn1c(=O)nc2n(-c3cccc(F)c3)c3ccccc3nc-2c1=O |  |  | inactive
17 | CC(=O)Nc1sccc1S(=O)(=O)c1ccc(Cl)cc1 | > 200 µM | > 200 µM | 
18 | C[C@]12C=CC(=O)C=C1CC[C@@H]1[C@@H]2CC[C@]2(C)OC(=O)CC[C@@H]12 | > 832 µM | 224 µM | 
19 | CCCCNc1ccc(/C=C2\C=Cc3ccccc32)cc1 | > 10 µM | > 10 µM | 
20 | COc1ccc(C(=O)CCN(C)C)cc1 | > 200 µM | 36.3 µM | 
21 | CC1(C)CC(=O)C2=C(C1)Nc1ccccc1NC2c1ccccc1 (configuration not stated) | > 200 µM | > 200 µM | 
22 | O=c1[nH]c(=S)nc2nc3c4ccc[nH]c4c4ccccc4c3nc12 | > 200 µM | 58.9 µM | 
23 | COC1=CCC2=C(CC[C@H]3[C@H]2CCP3(C)=S)C1 (some centres not stated) |  |  | inactive

Row | Structure (SMILES) | EC50 | IC50 | outcome
24 | CNC(C)(C)C(SSSC(c1ccc(Cl)cc1)C(C)(C)NC)c1ccc(Cl)cc1 (configuration not stated) | > 200 µM | 3.55 µM | 
25 | CCN(CC)CCOc1ccc(/C=C(\C#N)c2ccc(OCCN(CC)CC)cc2)cc1 | > 53.7 µM | 3.72 µM and 6.92 µM | 
26 | SCCCSCCSCCCSCCS | > 17.4 µM | > 17.4 µM | 
27 | O=c1[nH]nc(Cc2ccccc2)n1/N=C/c1ccccc1O | > 200 µM | 85.1 µM | 
28 | CN(C)Cc1cc(C(=O)/C=C/c2c(Cl)cccc2Cl)cc(CN(C)C)c1O | > 200 µM | 2.69 µM | 
29 | CC1(C)C(=O)N(c2ccccc2)C(=O)N1c1nc2ccccc2[nH]1 | > 155 µM | > 155 µM | 
30 | O=c1/c(=N\Nc2ccccc2)c2cccc3ccc4cccc1c4c32 | > 100 µM | > 100 µM | 
31 | CC1(C)CSCC(C)(C)C2(C=CC=CC=N2)C1=O (configuration not stated) | > 191 µM | 26.3 µM | 
32 | O=C(OC1C#CCSCC#C/C=C\1)c1cnc2ccccc2n1 (configuration not stated) | > 200 µM | 33.1 µM | 
33 | C=CCc1c(O)c2nsnc2c2nsnc12 | > 200 µM | > 200 µM | 
34 | CN1CC(=O)NC2C(=CN(Cc3ccccc3)c3ccccc32)C1=O (configuration not stated) | > 200 µM | > 200 µM | 
35 | CC(=O)N1CCN(CCCCN2c3ccccc3Sc3cc(N=[N+]=[N-])ccc32)CC1 | > 200 µM | 6.61 µM | 
36 | O=c1oc2cccnc2n1CCCCN1CCN(c2ccccc2)CC1 | > 200 µM | 126 µM | 
37 | NC(=O)Cc1ncn(-c2ccccc2)n1 | > 200 µM | > 200 µM | 
38 | COC(=O)/C(=N\NC(C)(C)C)C(C(=O)OC)C(=O)C(=O)Nc1cc(Cl)ccc1Cl (configuration not stated) |  |  | inactive
39 | Nc1ccccc1C(=O)CCC1C(=O)NC(=S)NC1=O | > 6.92 µM | > 6.92 µM | 
40 | c1ccc2[nH]c(CNc3ccc(C4C[Se]N=N4)cc3)nc2c1 (configuration not stated) | > 20.4 µM | > 20.4 µM | 
41 | C=CCC(N)Cc1ccccc1 (configuration not stated) | > 200 µM | > 200 µM | 
42 | COc1ccccc1/C=C(\C#N)C(=O)O | > 646 µM | 251 µM | 
43 | CC1(C)CC(=O)C(CCC(=O)/C=C/c2ccccc2)C(=O)C1 | > 87.1 µM | > 87.1 µM | 
44 | O=C(Nc1ccc(Cl)c(Cl)c1)OCn1ncc2ccc([N+](=O)[O-])cc21 | > 200 µM | 132 µM | 
45 | Cn1nc(-c2ccccc2)c(N=[N+]=[N-])cc1=O | > 200 µM | > 200 µM | 
46 | CCOC(=O)[C@H]1C[C@H]2O[C@H]2C[C@@H]1C |  |  | inactive

Row | Structure (SMILES) | EC50 | IC50 | outcome
47 | N#Cc1c(Cl)nc2ccccc2c1N=[N+]=[N-] | > 200 µM | 0.912 µM | 
48 | S=C1Cc2c([nH]c3ccccc23)-c2ccccc2N1 | > 200 µM | 129 µM | 
49 | O=C(Cn1ccnc1[N+](=O)[O-])N(CCO)CCO | > 977 µM | > 977 µM | 
50 | CCc1ccccc1N=NC(=O)NNc1ccccc1CC | > 200 µM | 70.8 µM | 
51 | C1CC(C2OCOC3COCOC32)OO1 (configuration not stated) | > 200 µM | > 200 µM | 
52 | O=C1CC(C(=O)N2CCCCC2)n2c(=O)n(-c3ccccc3)c(=O)n2C1 (configuration not stated) | > 200 µM | > 200 µM | 
53 | CC1=C(c2ccccc2)CON(c2ccccc2)C1 | > 53.7 µM | > 53.7 µM | 
54 | O=C1COc2cc3c(cc2N1)SCC(=O)N3 | > 42.7 µM | > 42.7 µM | 
55 | CC(=O)c1cccn1/C=C(\OC(=O)OC(C)(C)C)c1ccc[nH]1 | 155 µM | 162 µM | 
56 | COC(=O)[C@@H]1C[C@]2(CC=C(C)C)c3ccccc3N(S(=O)(=O)c3ccccc3)[C@@H]2N1C(=O)OC | > 200 µM | 20 µM | 
57 | O=C(O)c1cc(CC2Cc3cc4c(cc3C2=O)CCC4)cc2c1CCC2 (configuration not stated) | > 200 µM | 53.7 µM | 
58 | CCCO/S(=N\S(=O)(=O)c1ccccc1)c1ccccc1[N+](=O)[O-] (configuration not stated) | > 676 µM | > 676 µM | 
59 | Cc1ccc(NC(=O)CCc2nnc3s/c(=C\c4cccc([N+](=O)[O-])c4)c(=O)n23)cc1 | > 1.74 µM | > 1.74 µM | 
60 | COC1=C(N)C(=O)c2ncccc2C1=O |  |  | inactive
61 | CN(C)C1=CC(=O)C(=O)c2ccncc21 |  |  | inactive
62 | N#C/C(=C\c1c[nH]c2ccccc12)C(=O)c1ccc(O)c(O)c1 | > 85.1 µM | 46.8 µM | 
63 | O=c1cc(NCC2CCCCC2)[nH]c(=O)[nH]1 | > 200 µM | > 200 µM | 
64 | O=c1c2cc([N+](=O)[O-])ccc2[nH]n1Cc1ccccc1Cl | > 200 µM | 41.7 µM | 
65 | BrC12c3ccccc3Sc3ccccc3C1(Br)c1ccccc12 (configuration not stated) |  |  | inactive
66 | CCCCNC(=O)Cn1c2ccc(Br)cc2c2nc3ccccc3nc21 | > 100 µM | > 100 µM | 
67 | Cc1ccc(N/N=c2/ccc(=O)/c(=N\Nc3ccc(S(=O)(=O)O)cc3)c2=O)c(C)c1 | > 200 µM | > 200 µM | 
68 | COC(=O)C(=O)/C(=C\N1C(=O)CC(=O)NC1=S)C(=O)c1ccc([N+](=O)[O-])cc1 | > 200 µM | > 200 µM | 
69 | O=C1NC2Cc3ccccc3C(C2)O1 (configuration not stated) | > 200 µM | > 200 µM | 

Row | Structure (SMILES) | EC50 | IC50 | outcome
70 | CC(=O)Nc1ccc(-c2nnc(SCC(=O)Nc3cccc(C)c3)o2)cc1 | > 67.6 µM | 11.7 µM | 
71 | O=C(NC(Cc1c[nH]c2ccccc12)C(=O)O)/C(=C/c1ccccc1O)NC(=O)c1ccccc1 (configuration not stated) | > 200 µM | > 200 µM | 
72 | COc1cc(-c2cc(CCC(=O)Nc3ccccc3[N+](=O)[O-])n(-c3ccc([N+](=O)[O-])cc3[N+](=O)[O-])n2)ccc1O | > 47.9 µM | > 47.9 µM | 
73 | O=C(O)c1cccc(P(=O)(O)O)c1 | > 200 µM | > 200 µM | 
74 | O=C(c1ccccc1)c1nnn(Cc2ccccc2Cn2nnc(C(=O)c3ccccc3)c2C(=O)c2ccccc2)c1C(=O)c1ccccc1 | > 7.94 µM | > 7.94 µM | 
75 | O=C(O)CCc1ccc(O)c(O)c1 |  |  | inactive
76 | N#C/C(C(=S)Nc1ccccc1)=C(/N)N1CCCC1 | > 200 µM | 105 µM | 
77 | O=c1cc(-c2ccccc2)[nH]c2nccn12 | > 200 µM | > 200 µM | 
78 | CCCCNC(=O)OCC(COc1ccccc1OC)OC(=O)NCCCC (configuration not stated) | > 66.1 µM | > 66.1 µM | 
79 | CN(C)CCC(=O)c1ccc(Cl)cc1 | > 107 µM | 27.5 µM | 
80 | O=C(CCCCCCCCCCc1ccccc1)c1c(O)cccc1O | > 14.8 µM | > 14.8 µM | 
81 | CN(C)c1nc2oc(-c3ccccc3)c(-c3ccccc3)c2c2nncn12 | > 151 µM | > 151 µM | 
82 | O=C(O)/C(Cl)=C(/Cl)C(=O)Nc1cccc(Cl)c1 |  |  | inactive
83 | C/C(=N/NC(=S)Nc1ccccc1C)c1ccccn1 | > 0.2 µM | 0.0692 µM | 
84 | CO/N=C1/c2sccc2[C@H](NC(=O)CNC(=O)OC(C)(C)C)[C@@H]1O | > 200 µM | > 200 µM | 
85 | O=C(CC(=O)C1CCOC1=O)C(=O)Nc1ccc(Cl)cc1 (configuration not stated) |  |  | inactive
86 | Nc1ccc(N=Nc2ccc(/C=C/c3ccc(N=Nc4ccc(N)c5cc(S(=O)(=O)O)ccc45)cc3S(=O)(=O)O)c(S(=O)(=O)O)c2)c2ccc(S(=O)(=O)O)cc12 | > 107 µM | 30.2 µM | 
87 | O=C1/C(=C/c2ccccc2Cl)CCc2ccccc21 | > 10 µM | > 10 µM | 
88 | CC1=C(C2=C(C)C(=O)C(=O)c3cc(C)ccc32)c2ccc(C)cc2C(=O)C1=O | > 200 µM | 0.0631 µM | 
89 | Oc1ccc(-c2c3ccccc3c(-c3ccc(OCCBr)cc3)c3ccccc23)cc1 | > 100 µM | > 100 µM | 
